According to US8653264B2, “Crystal of erlotinib base and the preparation method thereof” (Zhejiang Huahai Pharmaceutical Co., Ltd., priority 2010, dated 2014):

Experiments:
[1] = hygroscopicity experiment; assay type: physicochemical; conditions: crystal form IV of erlotinib base; conditions not given
stability experiment = assay type: physicochemical; conditions: crystal form IV of erlotinib base; conditions not given

## C#Cc1cccc(Nc2ncnc3cc(OCCOC)c(OCCOC)cc23)c1 [Form IV, N-(3-ethynylphenyl)-6,7-bis(2-methoxyethoxy)quinazolin-4-amine]
[1]
  change in the hygroscopicity experiment: did not significantly change
Stability experiment
  change in the stability experiment: did not significantly change
